Laboratory results taken from US11066409B2, “Bicyclic nitrogen-containing heterocyclic derivatives and pharmaceutical composition comprising the same” (Shionogi & Co., Ltd., priority 2016, dated 2021).

Tests used:
human P2X7 receptor = human P2X7 receptor (Homo sapiens (Human), UniProt Q99572, R270H); experiment: Evaluation of a human P2X7 receptor inhibitory activity (Yo-Pro uptake, BzATP stimulation, FLIPR TETRA); type: cell-based; settings: 1321N1 cells stably expressing human P2X7 receptor, Yo-Pro fluorescence
Chain of human P2X7 receptor (Q99572 whole entry R270H): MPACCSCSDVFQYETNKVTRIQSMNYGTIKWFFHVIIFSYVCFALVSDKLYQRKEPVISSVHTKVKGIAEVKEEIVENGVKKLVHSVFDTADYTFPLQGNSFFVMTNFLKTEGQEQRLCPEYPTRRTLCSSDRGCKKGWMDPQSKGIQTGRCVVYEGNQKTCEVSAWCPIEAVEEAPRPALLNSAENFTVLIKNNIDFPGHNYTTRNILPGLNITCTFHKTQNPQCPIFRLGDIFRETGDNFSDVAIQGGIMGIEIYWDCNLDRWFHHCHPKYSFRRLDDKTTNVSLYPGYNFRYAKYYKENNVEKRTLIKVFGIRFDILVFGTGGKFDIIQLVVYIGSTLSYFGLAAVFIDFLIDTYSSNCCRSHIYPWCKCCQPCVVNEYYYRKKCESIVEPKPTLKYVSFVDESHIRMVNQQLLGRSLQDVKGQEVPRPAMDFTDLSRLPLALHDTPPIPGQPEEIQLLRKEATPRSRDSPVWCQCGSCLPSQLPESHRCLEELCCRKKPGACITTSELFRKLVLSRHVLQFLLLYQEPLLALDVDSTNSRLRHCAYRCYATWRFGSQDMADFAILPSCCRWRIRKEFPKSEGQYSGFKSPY
Summary of the method: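 1321N1 cells stably expressing human P2X7 (T606C/G952A SNP variant) in HBSS/HEPES pH 7.4–7.5 were loaded with Yo-Pro and stimulated with BzATP on FLIPR TETRA. Compound was added 8 min later and fluorescence followed for 20 min. Inhibition scaled between no-compound (0%) and reference compound (100%); IC50 by logistic fit, reported in bins A–D.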

[1] = system: partial sciatic nerve ligation model in rats; experiment: Analgesic effect in a Seltzer model (partial sciatic nerve ligation), mechanical allodynia by von Frey filaments; type: in vivo; settings: 1 h, rat, oral, reversal of mechanical allodynia, approximately 1 to 5 hours after administration
Description: Preparation of Partial Sciatic Nerve Ligation Model in Rats
Rats were anaesthetized using isoflurane/O2 inhalation anaesthesia. After induction of anesthesia, the left thigh was shaved. An incision was made in the skin just below the hip bone. The muscle was bluntly dissected to expose the sciatic nerve. About one half (½) of the sciatic nerve thickness was tightly ligated with a nylon thread and the wound was closed. The right thigh was used as a sham-operated control. The right thigh underwent an identical procedure with the left hind limb, however, the sciatic nerve was not manipulated or ligated.
Two weeks after nerve ligation, the effect on mechanical allodynia was assessed using a series of von Frey filaments. For habituation, the rats were placed into a plastic cage on a wire mesh bottom. Von Frey filaments (0.4 to 26 g) were applied to the plantar surface of the rat hind paws from the wire mesh side, and the value of the filament pressure at which the paw was withdrawn was used as a pain threshold. The measurement of mechanical sensitivity of the right and left hind paws was performed to obtain predose mechanical sensitivity. The rats showing the threshold change from 0.6 to 2 g (in nerve ligated side) and 8 to 15 g (in sham operated side) were used in the experiments. On the day before the experiment, the rats were evaluated with a series of von Frey filaments to familiarize them with the test procedure. The adopted animal was administrated with the compounds of the present invention. The compounds of the present invention were homogenized with mortar and pestle and suspended or diluted in 0.5% Methyl Cellulose to prepare 0.03-100 mg/2 mL/kg suspension and orally administered to rat using a syringe attached with a sonde. Post-dose mechanical sensitivities of the right and left hind paws were measured at approximately 1 to 5 hours after drug administration. Percent reversal of mechanical allodynia for each rat was calculated using the following formula. The analgesic effects of the compounds were compared.

human PXR = human PXR (Homo sapiens (Human), UniProt O75469); experiment: Evaluation of activation of human pregnane X receptor (PXR), DPX2 cells; type: cell-based; settings: 48 hours, emission intensity divided by fluorescence intensity; for PXR 10 μM: compound 10 μM; for PXR 50 μM: compound 50 μM
Chain of human PXR (O75469 whole entry): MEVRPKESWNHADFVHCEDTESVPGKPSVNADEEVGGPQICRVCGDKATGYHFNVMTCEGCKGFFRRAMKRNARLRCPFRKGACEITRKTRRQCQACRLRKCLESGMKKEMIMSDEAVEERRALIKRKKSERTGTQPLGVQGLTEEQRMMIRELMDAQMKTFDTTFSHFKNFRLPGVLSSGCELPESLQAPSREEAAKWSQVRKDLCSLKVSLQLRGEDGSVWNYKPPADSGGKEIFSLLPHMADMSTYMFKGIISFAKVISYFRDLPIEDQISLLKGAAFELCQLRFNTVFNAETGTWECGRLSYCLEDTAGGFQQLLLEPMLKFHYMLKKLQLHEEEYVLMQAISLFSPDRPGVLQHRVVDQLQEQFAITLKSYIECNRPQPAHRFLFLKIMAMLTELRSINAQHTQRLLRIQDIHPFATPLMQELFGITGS
Method: A Human PXR activation (Puracyp, Inc.) kit was used for evaluation.
DPX2 cells expressing human PXR were seeded in a 96-well plate at a concentration of 40000 cells/well and cultured at 37° C. under 5% carbon dioxide for 24 hours (medium: culture medium for DPX2 cells containing 10% fetal bovine serum, antibiotics, sodium pyruvate, D-glucose, and phenol red). After culture for 24 hours, a DMSO solution of the compound of the present invention was diluted with a medium (dosing medium for DPX2 cells containing 10% fetal bovine serum, D-glucose, antibiotics, sodium pyruvate, and L-glutamine) so that the final concentration was 10 and 50 μM, and a rifampicin DMSO solution as a positive control drug was 0.2, 1, 2, and 20 μM. The medium was removed from the 96-well plate after culture for 24 hours. 100 μL of the solution of the compound of the present invention and 100 μL of the rifampicin solution prepared were added to each well, and cultured for 48 hours. The medium was removed from the 96-well plate after culture for 48 hours. 100 μL of each reaction mixture obtained by adding 5.25 μL of CellTiter-Fluor to 10.5 mL of TubeE was filled therein. The plate was set in a plate reader (PerkinElmer, Inc.) after culture for 1 hour to measure the fluorescence intensity at an interval of 0.1 seconds per well. The plate was taken out. 100 μL of a solution obtained by adding ONE-Glo Assay Substrate to ONE-Glo Assaybuffer was added to each well. After 2 minutes from the addition of the solution, the plate was set in the plate reader to measure the […] at an interval of 2 seconds per well. The PXR activity of the product of the present invention was a value obtained by dividing the emission intensity by the fluorescence intensity.

Row | Structure (SMILES) | IC50 (human P2X7 receptor) [µM] | inhibition in vivo at 3 mg/kg [1] [%] | IC50 (human P2X7 receptor; class symbols) [µM] | PXR 10 μM (human PXR) | PXR 50 μM (human PXR) | inhibition in vivo at 1 mg/kg [1] [%]
1 | Cc1cc2c(cc1Nc1nc(=O)c(F)c3n1C(c1cc(F)cc(F)c1)CC3)COC2 (stereo not shown) [Compound I-0102] | 0.011 | 55 |  |  |  | 
2 | COc1ccc(NC2=NC(=O)N(C)C3=NCC(c4cc(F)c(F)c(F)c4)N23)c(C)c1 (stereo not shown) [Compound I-0135] |  | 52 | 0.01 to 0.1 | 3 | 9 | 
3 | COc1ccc(C)c(NC2=NC(=O)N(C)C3=NCC(c4cc(F)c(F)c(F)c4)N23)c1 (stereo not shown) [Compound I-0142] |  |  | 0.01 to 0.1 | 5.8 | 13 | 
4 | Cc1ccc(C#N)cc1NC1=NC(=O)N(C)C2=NCC(c3cc(F)c(F)c(F)c3)N12 (stereo not shown) [Compound I-0145] | 0.019 |  | 0.01 to 0.1 | 1.9 | 6.2 | 58
5 | COc1ccc(NC2=NC(=O)N(C)C3=NCC(c4cc(F)c(F)c(F)c4)N23)c(C)c1F (stereo not shown) [Compound I-0147] | 0.024 |  | 0.01 to 0.1 |  |  | 33
6 | COc1cc(NC2=NC(=O)N(C)C3=NCC(c4cc(F)c(F)c(F)c4)N23)c(C)cc1F (stereo not shown) [Compound I-0149] | 0.021 |  |  |  |  | 41
7 | CCc1nc(OC)ccc1NC1=NC(=O)N(C)C2=NCC(c3cc(F)c(F)c(F)c3)N12 (stereo not shown) [Compound I-0154] | 0.017 |  |  | 7.9 | 15.8 | 44
8 | COCCOc1ccc(C)c(NC2=NC(=O)N(C)C3=NCC(c4cc(F)c(F)c(F)c4)N23)c1 (stereo not shown) [Compound I-0158] | 0.027 |  |  | 1.2 | 4.7 | 47
9 | Cc1ccc(CO)cc1NC1=NC(=O)N(C)C2=NCC(c3cc(F)c(F)c(F)c3)N12 (stereo not shown) [Compound I-0161] | 0.019 |  |  | 1.2 | 2.5 | 51
10 | COc1nc(C)c(NC2=NC(=O)N(C)C3=NCC(c4cc(F)c(F)c(F)c4)N23)cc1F (stereo not shown) [Compound I-0162] | 0.019 |  |  | 6.7 | 20 | 
11 | Cc1cc2c(cc1NC1=NC(=O)N(C)C3=NCC(c4cc(F)c(F)c(F)c4)N13)COC2 (stereo not shown) [Compound I-0164] | 0.028 |  |  | 10.6 | 25 | 47
12 | Cc1cc(F)c(CO)cc1NC1=NC(=O)N(C)C2=NCC(c3cc(F)c(F)c(F)c3)N12 (stereo not shown) [Compound I-0168] |  |  |  | 0.9 | 1.7 | 53
13 | Cc1ccc(OCCO)cc1NC1=NC(=O)N(C)C2=NCC(c3cc(F)c(F)c(F)c3)N12 (stereo not shown) [Compound I-0171] |  |  |  | 1.2 | 2.5 | 52
14 | CCc1ccc(CO)cc1NC1=NC(=O)N(C)C2=NCC(c3cc(F)c(F)c(F)c3)N12 (stereo not shown) [Compound I-0176] | 0.02 |  |  | 1.1 | 2 | 
15 | CN1C(=O)N=C(NCc2ccccc2)N2C1=NCC2c1cc(F)c(F)c(F)c1 (stereo not shown) [Compound I-0188] | 0.0076 |  |  | 1.3 | 3.5 | 
16 | Cc1ccc(OC(F)F)cc1NC1=NC(=O)N(C)C2=NCC(c3cc(F)c(F)c(F)c3)N12 (stereo not shown) [Compound I-0192] | 0.018 |  |  | 7.9 | 15 | 50
17 | COCc1ccc(C)c(NC2=NC(=O)N(C)C3=NCC(c4cc(F)c(F)c(F)c4)N23)c1 (stereo not shown) [Compound I-0201] | 0.026 |  |  | 4 | 13.5 | 51
